These results are taken from patent publication US20240294484A1, “HERBICIDAL ARYLDIHYDROFURANE CARBOXYLATES” (BASF SE, priority 2021, published 2024).

Assay [1] concerns AMARE. In words: greenhouse post-emergence herbicidal test. The format is in vivo, Amaranthus retroflexus. The following applies: post-emergence method, application rate 1,000 kg/ha; scale from 0 to 100. An excerpt:
(§1) The culture containers used were plastic flowerpots containing loamy sand with approximately 3.0% of humus as the substrate. The seeds of the test plants were sown separately for each species.
(§2) For the pre-emergence treatment, the active ingredients, which had been suspended or emulsified in water, were applied directly after sowing by means of finely distributing nozzles. The containers were irrigated gently to promote germination and growth and subsequently covered with transparent plastic hoods until the test plants had rooted. This cover caused uniform germination of the test plants, unless this had been impaired by the active ingredients. For the post-emergence treatment, the test plants were first grown to a height of 3 to 15 cm, depending on the plant habit, and only then treated with the active ingredients which had been suspended or emulsified in water. For this purpose, the test plants were either sown directly and grown in the same containers, or they were first grown separately as seedlings and transplanted into the test containers a few days prior to treatment.
(§3) Depending on the species, the test plants were kept at 10-25° C. or 20-35° C., respectively. The test period extended over 2 to 4 weeks. During this time, the test plants were tended, and their response to the individual treatments was evaluated.
(§4) Evaluation was carried out using a scale from 0 to 100. […]

The subject of another assay is AVEFA. Description: greenhouse post-emergence herbicidal test. The format is in vivo, Avena fatua. The following applies: post-emergence method, application rate 1,000 kg/ha; scale from 0 to 100.
Excerpt: as §1, §2, §3, §4

For a further assay, the system named is ECHCG. Description: greenhouse pre-emergence herbicidal test. The format is in vivo, Echinocloa crus-galli. The following applies: pre-emergence method, application rate 1,000 kg/ha; scale from 0 to 100.
Excerpt: as §1, §2, §3, §4

A further assay relates to APESV. Description: greenhouse pre-emergence herbicidal test. The format is in vivo, Apera spica-venti. The settings on record: pre-emergence method, application rate 1,000 kg/ha; scale from 0 to 100.
Excerpt: as §1, §2, §3, §4

Assay [2] relates to AMARE. In words: greenhouse pre-emergence herbicidal test. It is filed as in vivo, Amaranthus retroflexus. The settings on record: pre-emergence method, application rate 1,000 kg/ha; scale from 0 to 100.
Excerpt: as §1, §2, §3, §4

`CCOC(=O)C1CC(c2cc(F)cc(F)c2)=CO1` (stereo not drawn) [compound 11, ethyl 4-(3,5-difluorophenyl)-2,3-dihydrofuran-2-carboxylate]: the “herbicidal activity against AMARE” value in the assay on AMARE [1] is “very good herbicidal activity (a very good herbicidal activity is given at values of 90 to 100)”. Take `O=C(O)C1(C(F)(F)F)CC(c2cc(F)cc(F)c2)=CO1` (stereo not drawn) [compound 17, 4-(3,5-difluorophenyl)-2-(trifluoromethyl)-3H-furan-2-carboxylic acid]: the “herbicidal activity against AVEFA” value in the assay with AVEFA is given as “very good herbicidal activity (a very good herbicidal activity is given at values of 90 to 100)”. In the case of “ethyl 4-(3,5-dichlorophenyl)-2-methyl-3H-furan-2-carboxylic acid [compound 14]”, in the assay on ECHCG, the “herbicidal activity against ECHCG” value is “very good herbicidal activity (a very good herbicidal activity is given at values of 90 to 100)”. Also, the “herbicidal activity against APESV” value in the assay on APESV is recorded as “very good herbicidal activity (a very good herbicidal activity is given at values of 90 to 100)”. As for “ethyl 4-(3,5-difluorophenyl)-2-methyl-3H-furan-2-carboxylic acid [compound 12]”, in the assay on ECHCG, the “herbicidal activity against ECHCG” value was “good herbicidal activity (A good herbicidal activity is given at values of 65 to 90)”. Also, the “herbicidal activity against AMARE” value in the assay on AMARE [2] is “good herbicidal activity (A good herbicidal activity is given at values of 65 to 90)”.
